Residues, ends and D or L forms follow the SMILES beside them.
Assays:
[1] = tested on: normal human epidermal keratinocytes (NHEKs); assay: LDH release cytotoxicity assay in keratinocytes; type: cell-based; conditions: minimal concentration giving 50% LDH release by NHEKs
Outline: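 Normal human epidermal keratinocytes were exposed to LL-34 parent and alanine-substituted peptides. Cytotoxicity was read as LDH release in fresh culture supernatants after treatment, using a commercial kit, and reported as the minimal concentration showing toxicity.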

[2] = tested on: NHEKs, IL6, IFNB1, TSLP, CXCL10 mRNA; assay: qRT-PCR gene expression in NHEKs; type: cell-based, human; conditions: 18 h / 8 h (Fig. 1 legend), n = 3; for Gene expression of IL6, IFNB1, and CXCL10, cotreatment with U1 dsRNA: U1 dsRNA 2.5 μg/ml + peptide 2 μM; for Gene expression of TSLP, peptide alone / Basal expression of IL6, IFNB1, and CXCL10, peptide alone: peptide 2 μM alone; for Gene expression of TSLP, peptide alone: GAPDH reference
Description: Protein levels of human IL-6 were analyzed from cell supernatant with ELISA (n = 3). Corresponding MIC values of LL-34 peptides L1A–R34A against Staphylococcus aureus USA300 are shown in the heat map. B, human dermal endothelial cells (HDMECs) were treated with either U1 dsRNA (2.5 μg/ml) or a combination of U1 dsRNA (2.5 μg/ml) and LL-34 peptides (Pep 1–Pep 34 and Pep–parent LL-34) at 2 μM for 18 h. IL-6 ELISA results are shown (n = 3). Green bars denote loss of IL-6 protein secretion compared with parent control shown in red. C, helical wheel plot for LL-34. Amino acids with green circles denote specific residues where replacement with an alanine caused the loss of IL-6 secretion compared with parent LL-34 peptide in NHEKs cotreated with U1 dsRNA. D, in the helical wheel plot for LL-34, circled green amino acids indicate that a substitution caused a loss of vetting in HDMEC. E–H, NHEKs were treated with LL-34-parent peptide (LL-34-P), LL-34-F5A, LL-34-I24A, LL-34-F27A, and LL-34-L31A at 2 μM, either individually or in combination with U1 dsRNA (2.5 μg/ml) for 8 h. Gene expression of IL-6, IFNB1, TSLP, and CXCL10 was assessed with qRT-PCR. GAPDH was used as a reference gene (n = 3) (∗p < 0.05; ∗∗∗∗p < 0.0001). One way-ANOVA was used. IL-6, interleukin 6; LL-34, 34-amino acid peptide; MIC, minimum inhibitory concentration, ns, not significant.
(§1) We further looked at mRNA abundance by quantitative RT-PCR (qRT-PCR) to evaluate gene expression for type 1 interferon IFNB1, chemokine CXCL10, and cytokines TSLP and IL6 in NHEKs treated with selected LL-34 parent, LL-34—F5A, I24A, F27A, and L31A—peptides either alone or in combination with U1 dsRNA for 18 h (Fig. 1, E–H).
RNA extracted from cells (Pure Link RNA Isolation Kit; Life Technologies) was quantified on the Nanodrop 2000/200C Spectrophotometer (Thermo Fisher Scientific). About 500 ng of purified RNA was used to synthesize complementary DNA with iScript cDNA Synthesis Kit (Bio-Rad). Predeveloped Taqman (Thermo Fisher Scientific) gene expression assays were used to evaluate mRNA transcript levels. Taqman cycling conditions were used as previously described ([9], [45]). All experiments were performed on a CFX96 system (Bio-Rad). Fold change relative to GAPDH was calculated using the Livak ΔΔCt method ([46]).

[3] = tested on: S. aureus strain USA300 and SA112, GAS; assay: Bacterial growth inhibition (OD600), Gram-positive strains; type: cell-based, Staphylococcus aureus; group A Streptococcus; conditions: 0-50 µM overnight, OD 600, n = 3, S. aureus USA300, SA113 (SA112 in text)
Description: as §1
(§2) Methicillin-resistant S. aureus USA300 and methicillin-sensitive S. aureus SA113 (American Type Culture Collection 35556) were cultured in 3% tryptic soy broth overnight at 37 °C with shaking at 250 rpm. GAS M49 strain NZ131 was cultured in Todd Hewitt broth supplemented with 1% yeast extract overnight at 37 °C without shaking. E. coli R1 strain RS218 was cultured in LB broth overnight at 37 °C with shaking at 250 rpm. MIC values were determined using a round-bottom 96-well microdilution method with RPMI cell culture media (as a source of Ca^2+ and Mg^2+) supplemented with tryptic soy broth, Todd Hewitt broth/yeast extract, or LB to facilitate growth of the respective bacterial strains. Overnight bacterial cultures were subcultured into fresh broth and grown to midlate log phase indicated by an absorbance at 600 nm value between 0.8 and 1.0 for each bacterial strain. The absorbance was then normalized to provide a concentration of 1 × 10^7 colony-forming units/ml in RPMI medium. The LL-34 parent and alanine scan mutants were serially diluted into the 96-well microtiter plates containing prewarmed RPMI bacterial growth medium. A 10 μl aliquot of the midlate log phase bacteria was inoculated into the 96-well microtiter plates that contained 95 μl of RPMI medium with or without the LL-34 peptide dilutions and incubated for 16 to 18 h at […] with shaking at 200 rpm. Inhibition of growth was determined by measuring the absorbance at 600 nm readings of each well using a microplate reader (Infinite M200 Pro; Tecan). The MIC of each bacterial strain was determined by the lowest peptide concentration that inhibited more than 80% bacterial growth.
(§3) (A) NHEKs and HDMECs (B) were treated with LL34- parent peptide and all the 34 alanine substituted peptides (Pep L1A-Pep R34A) and LL37 at 2 µM for 16 h. IL-6 protein secretion was assessed with ELISA (n=3) (C-F) LL34-Parent, LL34 F5A, LL34 I24A, LL34 F27A, and LL34 L31A peptides were incubated with S. aureus USA 300, S. aureus SA113, Group A Streptococcus (GAS) and E. coli at increasing concentrations (0-50 µM) overnight, and bacterial culture growth was assayed as absorbance at OD 600 (n=3).

Escherichia coli = assay: Bacterial growth inhibition (OD600), E. coli; type: cell-based; conditions: 0-50 µM overnight, OD 600, n = 3
Description: as §1, §2, §3

| SMILES | Minimal cytotoxic concentration in NHEK (LD50) [1] [µM] | Gene expression of IL6, IFNB1, and CXCL10, cotreatment with U1 dsRNA [2] | Gene expression of TSLP, peptide alone [2] | Basal expression of IL6, IFNB1, and CXCL10, peptide alone [2] | Capacity to inhibit growth of Gram-positive bacteria [3] | Action against Gram-negative E. coli (Escherichia coli) |
| --- | --- | --- | --- | --- | --- | --- |
| CC[C@H](C)[C@H](NC(=O)[C@H](CCCCN)NC(=O)[C@H](CCC(=O)O)NC(=O)[C@H](CCCCN)NC(=O)[C@H](CO)NC(=O)[C@H](CCCCN)NC(=O)[C@H](CCCNC(=N)N)NC(=O)[C@H](Cc1ccccc1)NC(=O)[C@H](Cc1ccccc1)NC(=O)[C@H](CC(=O)O)NC(=O)CNC(=O)[C@H](CC(C)C)NC(=O)[C@@H](N)CC(C)C)C(=O)NCC(=O)N[C@@H](CCCCN)C(=O)N[C@@H](CCC(=O)O)C(=O)N[C@@H](Cc1ccccc1)C(=O)N[C@@H](CCCCN)C(=O)N[C@@H](CCCNC(=N)N)C(=O)N[C@H](C(=O)N[C@H](C(=O)N[C@@H](CCC(N)=O)C(=O)N[C@@H](CCCNC(=N)N)C(=O)N[C@@H](C)C(=O)N[C@@H](CCCCN)C(=O)N[C@@H](CC(=O)O)C(=O)N[C@@H](Cc1ccccc1)C(=O)N[C@@H](CC(C)C)C(=O)N[C@@H](CCCNC(=N)N)C(=O)N[C@@H](CC(N)=O)C(=O)N[C@@H](CC(C)C)C(=O)N[C@H](C(=O)N1CCC[C@H]1C(=O)N[C@@H](CCCNC(=N)N)C(=O)O)C(C)C)C(C)C)[C@@H](C)CC [LL-34—I24A] (H-LLGDFFRKSKEKIGKEFKRIVQRAKDFLRNLVPR-OH) | 20 | reduction in gene expression | increased gene expression of TSLP | not affected | increased capacity to inhibit growth of most of the tested Gram-positive bacteria | little action |
| CC[C@H](C)[C@H](NC(=O)[C@H](CCCCN)NC(=O)[C@H](CCC(=O)O)NC(=O)[C@H](CCCCN)NC(=O)[C@H](CO)NC(=O)[C@H](CCCCN)NC(=O)[C@H](CCCNC(=N)N)NC(=O)[C@H](Cc1ccccc1)NC(=O)[C@H](Cc1ccccc1)NC(=O)[C@H](CC(=O)O)NC(=O)CNC(=O)[C@H](CC(C)C)NC(=O)[C@@H](N)CC(C)C)C(=O)NCC(=O)N[C@@H](CCCCN)C(=O)N[C@@H](CCC(=O)O)C(=O)N[C@@H](Cc1ccccc1)C(=O)N[C@@H](CCCCN)C(=O)N[C@@H](CCCNC(=N)N)C(=O)N[C@H](C(=O)N[C@H](C(=O)N[C@@H](CCC(N)=O)C(=O)N[C@@H](CCCNC(=N)N)C(=O)N[C@H](C(=O)N[C@@H](CCCCN)C(=O)N[C@@H](CC(=O)O)C(=O)N[C@@H](Cc1ccccc1)C(=O)N[C@@H](CC(C)C)C(=O)N[C@@H](CCCNC(=N)N)C(=O)N[C@@H](CC(N)=O)C(=O)N[C@@H](C)C(=O)N[C@H](C(=O)N1CCC[C@H]1C(=O)N[C@@H](CCCNC(=N)N)C(=O)O)C(C)C)[C@@H](C)CC)C(C)C)[C@@H](C)CC [LL-34—L31A] (H-LLGDFFRKSKEKIGKEFKRIVQRIKDFLRNAVPR-OH) | 10 | reduction in gene expression | increased gene expression of TSLP | not affected | increased capacity to inhibit growth of most of the tested Gram-positive bacteria | little action |

From publication PMC8214221, “Sequence determinants in the cathelicidin LL-37 that promote inflammation via presentation of RNA to scavenger receptors” (The Journal of Biological Chemistry, 2021)
